Reference: publication PMC12040169 (PLOS Biology, 2025)

Test: in vitro
Conditions: human, hela cells, % viability

SMILES | viability at 28.5 h, 10 µM [%]
O=C1c2ccc(-n3c(=O)c4cc5c(=O)n(-c6ccc7c(c6)C(=O)N(c6ccccc6)C7=O)c(=O)c5cc4c3=O)cc2C(=O)N1c1ccccc1 [CBK262136] | 88.1
CSCCN1CCN(c2nccnc2OCCN2C(=O)CCC2=O)CC1 [CBK084301] | 105
CCOCCCNC(=O)/C(=C/c1cccnc1)NC(=O)c1ccccc1 [CBK126866] | 90.8
CCc1nc(N)nc(N2CCC3(CCC(CNC(C)=O)O3)CC2)c1C (stereo not drawn) [CBK307168] | 100
Cc1cc(C)c2c(NCc3ccc(C)o3)n[nH]c2n1 [CBK284621] | 94.9
CCN1CCC2(CCC1=O)CN(Cc1cncn1CC(C)C)CCN2C (stereo not drawn) [CBK306947] | 96
O=C(Nc1nccs1)c1nccnc1-c1ccc(COc2ccccc2)cc1 [CBK050839] | 95.6
CC(=O)N1CCC2(CCCC[C@H]3CN(Cc4coc(C)n4)CC[C@@H]3NC(=O)CNC2=O)CC1 [CBK292165] | 101
Cn1c(COc2ccccc2)nnc1SCC(=O)c1cccc([N+](=O)[O-])c1 [CBK268397] | 101
CC(Sc1nc(N)cc(N)n1)C(=O)c1ccc(F)c(F)c1 (stereo not drawn) [CBK296928] | 94.7
COc1ccc(-c2nc(NC(=O)C3CC3)cnc2-c2cccc(C(F)(F)F)c2)cc1 [CBK036852] | 98
COCCN1CCC2(C/C=C/C[C@H]3COCC[C@H]3NC(=O)CNC2=O)CC1 [CBK292145] | 116
O=C(O)CCCNC(=O)COc1ccccc1OCC(=O)NCCCC(=O)O [CBK296089] | 90
COc1ccccc1C(=O)Cn1c(=O)n(S(=O)(=O)c2ccccc2)c2ccccc21 [CBK106497] | 90.2
COc1ccc(Cn2c(=O)n(S(=O)(=O)c3ccc(-c4cc(C(F)(F)F)n(C)n4)s3)c3ccccc32)cc1 [CBK106552] | 97.7
COc1ccc(S(=O)(=O)Nc2nccc(-c3ccc(CN4C(=O)CCC4=O)cc3)n2)cc1 [CBK067438] | 91.5
CC(=O)c1c(C)nn(CCC(=O)Nc2ccc(Cl)c(Cl)c2)c1C [CBK269829] | 99.3
O=C(CSCc1ccc(Br)cc1)N1CCN(Cc2ccc3c(c2)OCO3)CC1 [CBK268059] | 89.7
O=C(NC1CN2CCC1CC2)c1ncoc1-c1ccccc1 (stereo not drawn) [CBK283888] | 104
O=C1CCC(=O)N1Cc1cccc(-c2ccnc(NS(=O)(=O)c3ccc(Cl)cc3)n2)c1 [CBK067436] | 86.3
COc1ccc(C(=O)NCC2(c3ccccc3)CCCC2)c(OC)c1 [CBK058164] | 113
CCc1nc2cc(NC(=O)c3cc(C4CC4)nn3C)ccc2n1C [CBK283275] | 85.8

SMILES | viability at 28.5 h, 10 µM [%]
Cc1ccc(S(=O)(=O)N(C)CCCC(=O)n2cnc3ccccc32)cc1 [CBK264457] | 104
Cc1cc2oc(=O)cc(COC(=O)c3ccc(-n4cccn4)cc3)c2cc1Cl [CBK296626] | 93.9
NS(=O)(=O)c1ccc(NC(=S)NC(=O)/C=C/c2ccco2)cc1 [CBK261066] | 93
CCOc1ccccc1NC(=O)NCCSCc1ccco1 [CBK057501] | 94.5
COc1ccc(-c2nnc(SC(C)C(=O)Nc3cc(C)no3)n2CC2CCCO2)cc1 (stereo not drawn) [CBK297879] | 84.8
CCNC(=O)N[C@H]1CC[C@]2(C)CCC([C@H](C)C(=O)N3CCCCC3)[C@H](O)[C@H]2[C@@H]1C (stereo partly drawn) [CBK289455] | 84.7
Cc1cccc(CN(CC(C)(C)CN)C(=O)Nc2ccc(-c3ccccc3)cc2)n1 [CBK002453C] | 86.7
O=C(NCc1cccnc1)c1cc2c(ccc3ccccc32)oc1=O [CBK270195] | 95.7
O=C(CSc1nnc(-c2cccnc2)n1-c1ccc(Br)cc1)Nc1ccc2c(c1)OCCO2 [CBK266133] | 96.4
c1ccc2cc(-c3cc(Nc4ccc(N5CCOCC5)cc4)ncn3)ccc2c1 [CBK090929] | 94.2
O=C1NC2(CCC(=O)N(Cc3ccccc3)CC2)Nc2ccccc21 (stereo not drawn) [CBK284439] | 89.8
N#CC(C(=O)NC1CCCCC1)C(=O)c1nn(-c2ccccc2)c2c1CSc1ccccc1-2 (stereo not drawn) [CBK017690] | 103
O=C(O)CCC(=O)Nc1ccccc1NC(=O)c1ccc(C(F)(F)F)cc1 [CBK265770] | 102
Cc1ncc(CN(CCN(C)C)Cc2cccs2)n1C [CBK282993] | 93.4
COc1ccc(OC)c(NS(=O)(=O)c2ccc(C(=O)O)cc2)c1 [CBK267603] | 106
O=C1CCCN1CCCNc1ncnc2c1cnn2-c1ccc(Cl)cc1 [CBK265838] | 97.1
COc1cc(C)nc(NC(=O)COc2ccc(Cl)cc2C)n1 [CBK266681] | 106
O=C(Nc1sc2c(c1C(=O)O)CCC2)c1ccco1 [CBK152436] | 101
CCOC(=O)N1CCC(NC(=O)N2CCCC(C(=O)N(CC)CC)C2)CC1 (stereo not drawn) [CBK156159] | 109
O=C(NNC(=O)c1cccnc1)c1ccc(NC(=O)c2ccco2)cc1 [CBK266792] | 111
O=C(CNC(=O)c1ccccc1)OCC(=O)c1ccc(Cl)c(Cl)c1 [CBK261611] | 93.9
COc1cncc(C(NC(=O)c2cc(=O)cc(C)o2)[C@H]2C[C@@H](O)C2)c1 (stereo partly drawn) [CBK306833] | 97.5

SMILES | viability at 28.5 h, 10 µM [%]
CNC(=O)c1ccc(-c2cc(OC)c(OC)c(OC)c2)nc1NCCOC [CBK105997] | 94.1
CC(C)(C)c1cc(CCC(c2cc(C(C)(C)C)c(O)c(C(C)(C)C)c2)c2cc(C(C)(C)C)c(O)c(C(C)(C)C)c2)cc(C(C)(C)C)c1O [CBK261271] | 92.9
Oc1cccc(Sc2cncc(N3CCCC3)n2)c1 [CBK093796] | 106
Cc1nn2c3ccccc3nc2n1CCN1CCCCC1 [CBK278256C] | 95.3
Cc1nnc(N/N=C\c2ccco2)n1N [CBK028824C] | 97.4
COc1ccc2c(c1)C1(CC(=O)N(Cc3ccccc3)C1=O)C(=O)N2Cc1ccccc1 (stereo not drawn) [CBK075228] | 106
O=C(CSc1cnn[nH]1)Nc1ccc(F)cc1 [CBK270024] | 89.6
COc1ccc(NC(=O)c2cnc(-c3cccc(C)c3)c(-c3ccco3)c2)cc1 [CBK037491] | 83.9
CCOC(=O)c1cnn(C2CCCN(Cc3cnnn3C)C2)c1 (stereo not drawn) [CBK305122] | 98.5
COCc1cn([C@H]2CO[C@H]3[C@@H]2OC[C@@H]3NC(=O)c2ccc(OC)cc2)nn1 [CBK289494] | 115
COc1ccccc1C1CCCN1Cc1c(C)nc2ccccn12 (stereo not drawn) [CBK281995] | 91.9
CSCc1nnc(SCc2ccccc2Oc2ccccc2)o1 [CBK296743] | 99.2
O=C(CSc1nnc(-c2ccccc2)n1-c1ccccc1)N/N=C/c1coc2ccccc2c1=O [CBK262791] | 97.6
O=C(NCCc1c[nH]c2ccc(Cl)cc12)c1cccnc1 [CBK159778] | 106
Nc1ncc(-c2ccncc2)nc1NCCCN1CCOCC1 [CBK063631] | 98.9
c1ccc([C@@H]2CN(CC3CCOC3)C[C@H]2c2cc[nH]n2)cc1 (stereo partly drawn) [CBK285163] | 110
COc1cc(CNC(=O)C(C)SCc2ccccc2)ccn1 (stereo not drawn) [CBK298331] | 90.8
COc1cccc(CSc2ccc(CN3CCOCC3)cc2F)c1 [CBK174976] | 87.1
COc1cc(S(=O)(=O)NC2CC(C)(C)NC(C)(C)C2)ccc1Br [CBK267908] | 87.4
CC(=O)N1CC[C@H]2NC(=O)CNC(=O)C3(CCCC[C@H]2C1)CCN(C(=O)CC1CCOCC1)CC3 [CBK292030] | 92.9
O=C(Nc1ccc2ncccc2c1)c1ccoc1 [CBK159823] | 95.8
Cc1ccc(C(=O)NCc2cccnc2)c(N2CCOCC2)n1 [CBK076400] | 112

SMILES | viability at 28.5 h, 10 µM [%]
COc1cc(Nc2cncc(-c3ccc(N)cc3)n2)cc(OC)c1OC [CBK065642] | 56.2
CC(C)CC(=O)N1CCCC(n2c(=O)oc3ccc(Cl)cc32)C1 (stereo not drawn) [CBK282891] | 89.3
Cc1nc2c(c(=O)[nH]1)CCN(CCC(C)c1ccccc1)C2 (stereo not drawn) [CBK282387] | 81
O=C(Cn1c(=O)[nH]c2c(oc3ccccc32)c1=O)Nc1ccccc1 [CBK287818] | 104
COc1cc(-c2cnc(N)c(N3CCC[C@@H]3CO)n2)cc(OC)c1OC [CBK063478] | 101
Cc1cc(Cc2ccc(Cl)cc2)cc(C2CCN(C(=O)Cc3csc(C)n3)CC2)n1 [CBK286526] | 88.5
Cc1sc2nc(N)c(C(=O)NC(C)C)cc2c1C [CBK269259] | 115
Clc1ccc(C2(N3CCC(N4CCOCC4)CC3)CC2)cc1 [CBK282722] | 90.8
CCC(=O)Nc1ccc(O)cc1C(=O)O [CBK126818] | 92.8
Fc1ccc(CCNC(=S)NC2CCCC2)cc1 [CBK266175] | 99.9
O=C(CCN1C(=O)/C(=C\c2cccs2)SC1=S)Nc1cc(Cl)ccc1O [CBK263643] | 98.2
O=C(CSc1nc(O)cc(=O)n1-c1ccccc1)c1ccccc1 [CBK261745] | 103
O=C1CC2CC3CC2C(Sc2ccccc2)C3O1 (stereo not drawn) [CBK016225] | 97.4
COc1ccc(CCNC(=O)c2ccccc2NS(=O)(=O)c2cc(C(=O)O)ccc2OC)cc1 [CBK297506] | 90.8
Cc1cccc(NC(=S)NNC(=O)CCC(=O)O)c1 [CBK261542] | 85.1
C=CCNC(=O)c1cc(Br)cnc1NCC1CC1 [CBK076424] | 102
Cc1nnc2c(N3CCN(CCO)CC3)nc3ccccc3n12 [CBK270146] | 83.2
COc1cccc(Nc2[nH]nnc2C(=O)Nc2cccc(C)c2C)c1 [CBK288028] | 102
c1ccc([C@@H]2CN(Cc3ccncc3)C[C@H]2c2cc[nH]n2)cc1 [CBK285161] | 88
O=C(Cc1ccc(F)cc1)NCc1nnc(-c2cccs2)o1 [CBK284640] | 82.6

Same assay, conditions: human, hela cells, % viability, bulk resorufin, single well

SMILES | viability at 28.5 h, 10 µM [%]
Cc1nc(C)c(C(=O)Nc2ccccc2-c2ccc3c(c2)COC2(CCNCC2)O3)s1 [CBK107628] | 96.8
